Data as given in US5441941A, “1,2-dihydroellipticines with activity against CNS specific cancer” (The United States of America as represented by the …, priority 1993, dated 1995).

Legend:
[1] = system: DMS 114; experiment: cells; conditions: Homo sapiens; for CC50: DMS-114, read-out: LC-50
[2] = system: DMS 273; experiment: NCI in vitro screen, SRB percent growth, Small Cell Lung Cancer
[3] = DMS-114, read-out: Percent Growth

Row | Compound | CC50 [1] | activity at 0.01 µM [1, 3] | activity at 0.1 µM [1, 3] | activity at 10 µM [1, 3] | activity at 100 µM [1, 3] | Percent Growth ([2]; Log10 Concentration -4.0, 100 µM) | Percent Growth ([2]; Log10 Concentration -5.0) | Percent Growth ([2]; Log10 Concentration -6.0, 1 µM) | Percent Growth ([2]; Log10 Concentration -7.0, 0.1 µM) | Percent Growth ([2]; Log10 Concentration -8.0) | CC50 ([2]; read-out: LC-50, PG=-50) | activity at 1 µM [1, 3]
1 | Cc1ccc2[nH]c3c(C)c4c(c(C)c3c2c1)CN(C)C=C4 [Formula XI] | 6.03 µM | 80% | 73% | -74% | -68% |  |  |  |  |  |  | 
2 | COc1ccc2[nH]c3c(C)c4c(c(C)c3c2c1)CN(C)C=C4 [Formula VII] | > 100 µM |  | 64% | -37% | -46% | -72% | 10% | 48% | 77% | 98% | 54.3 µM | 11%
